Data on 8 molecules can be found in publication PMC6152211 (Molecules : A Journal of Synthetic Chemistry and Natural …, 2017).

For series [1] the following is noted: rat plasma, cited from earlier work; for share of AUC in plasma: metabolite of sorafenib.
The conditions of series [2]: dog plasma, cited from earlier work.
For series [3] the following is noted: human plasma, cited from earlier work.
The subject of series [4] is CYP3A4. The following applies: cited from earlier work.
Series [5] relates to CYP1A2. The following applies: cited from earlier work.
Series [6] in a line: Phase I CYP3A4 metabolism study: sorafenib pharmacokinetics after pretreatment with grapefruit juice or ketoconazole (Part B). The following applies: for F (oral bioavailability) / CL: then single sorafenib 10 mg/kg p.o., mean ± SD, n = 6; for F (oral bioavailability): compared to Group A1 (3 mg/kg, i.v.), rat.
Series [7] in a line: Herbal drug pharmacokinetic interaction study of sorafenib in rat plasma (Part A). Type of series: in vivo, Male Sprague-Dawley rats. The following applies: for bioavailability: read-out: F (oral bioavailability). From the text:
The jugular-catheterized rats were randomly divided into four groups, Groups A1–A4, as described above. […] […] […] Data from these samples were used to construct pharmacokinetic profiles by plotting drug concentrations versus times.

For series [8], the system named is rat liver. Kind of series: Hepatotoxicity study: serum AST and ALT levels (Part D). It is filed as in vivo. On the procedure:
(§1) Hepatotoxicity and histopathological experiments were performed on 42 jugular-catheterized rats that were randomly divided into Groups D1–D7 containing six animals, as described above. In the “Part D” study, an aqueous solution of the LDXGT formulation and sorafenib were each administered to rats by oral gavage. Blood samples were collected from the jugular vein at 0, 0.5 and 1 h after dosing for the […] group. […] Serum was obtained by centrifugation. The levels of the AST and ALT enzymes were determined using an automatic biochemical analysis. After blood sampling, the livers were dissected from the rats in each group and prepared using a series of processes.

Series [9] relates to rat liver. As to the kind of experiment: Histopathological analysis of liver slices, H&E staining (Part D). It is filed as in vivo. Here is the method: Histopathological analyses were performed to quantitatively evaluate the degree of liver inflammation in our experimental model using a morphometric examination of liver sections and Modified Hepatic Activity Index Grading (Modified HAI Grading; Necroinflammatory Score).
as §1

Setting [10] is: Group A2: sorafenib 10 mg/kg, p.o. alone, rat plasma, mean ± SD, n = 6.
Setting [11] is: Group A4: LDXGT formulation 2 g/kg/day p.o. for 5 consecutive days, then single sorafenib 10 mg/kg p.o., rat plasma, mean ± SD, n = 6.
Setting [12] is: male, Sprague-Dawley, rat, plasma, iv, 3 mg/kg, Group A1: sorafenib 3 mg/kg, i.v., rat plasma, mean ± SD, n = 6.
Setting [13] is: male, Sprague-Dawley, rat, plasma, po, 10 mg/kg, Group A2: sorafenib 10 mg/kg, p.o. alone, rat plasma, mean ± SD, n = 6.
The mark [14] stands for this setting: male, Sprague-Dawley, rat, plasma, po, 10 mg/kg, Group A3: LDXGT formulation 1 g/kg/day p.o. for 5 consecutive days, then single sorafenib 10 mg/kg p.o., rat plasma, mean ± SD, n = 6.
Where [15] appears, read: male, Sprague-Dawley, rat, plasma, po, 10 mg/kg, Group A4: LDXGT formulation 2 g/kg/day p.o. for 5 consecutive days, then single sorafenib 10 mg/kg p.o., rat plasma, mean ± SD, n = 6.

As usually defined, the clearance is the volume of plasma or blood freed of the substance per unit of time. Higher therefore signals efficient removal. A word on the AUC: it is concentration integrated over time. For orientation: Cmax means the peak of the concentration-time curve. For orientation: half-life means the time needed for the level to fall by half in the phase considered. Higher therefore signals slow loss. Usually bioavailability stands for the share of a dose that reaches the circulation, judged against a reference dose that is usually intravenous. Usually Tmax stands for the time at which the peak concentration occurs.

Molecules are shown by their SMILES. Read-outs that look alike come from different tables or passages of the source.

For `CNC(=O)c1cc(Oc2ccc(NC(=O)Nc3ccc(Cl)c(C(F)(F)F)c3)cc2)cc[n+]1[O-]` [M-2], the “share of AUC in plasma” value is recorded as 0.9 % of AUC in series [1] and 16.7 % of AUC in series [3] (metabolite of sorafenib). In series [2], the “presence of the metabolite in plasma” value is “absent”.
In the case of `O=C(Nc1ccc(Oc2ccnc(C(=O)NCO)c2)cc1)Nc1ccc(Cl)c(C(F)(F)F)c1` [M-3], the “share of AUC in plasma” value in series [1] was 12.1 % of AUC; in series [2] (metabolite of sorafenib), 15.6 % of AUC.
Consider `NC(=O)c1cc(Oc2ccc(NC(=O)Nc3ccc(Cl)c(C(F)(F)F)c3)cc2)ccn1` [M-4], for which the “presence of the metabolite in plasma” value in series [1], in [2] and in [3] was “detected” in each case.
Consider `O=c1cc(-c2ccccc2)oc2cc(O)c(O)c(O)c12` [baicalein], for which, in series [4], the “effect on CYP3A4 enzyme activity” value is on record as “inhibited”.
Consider `O=C(O)[C@H]1O[C@@H](Oc2cc3oc(-c4ccccc4)cc(=O)c3c(O)c2O)[C@H](O)[C@@H](O)[C@@H]1O` [baicalin], for which the “effect on CYP1A2 activity” value in [5] (in vitro, baicalin in human liver microsomes) was “inhibits”.
`C=C[C@@H]1C2=CCOC(=O)C2=CO[C@H]1O[C@@H]1O[C@H](CO)[C@@H](O)[C@H](O)[C@H]1O` [gentiopicroside]: the “effect on CYP1A2 activity” value in series [5] (microsomes) is “significant increase”. Also, the “effect on CYP3A4 enzyme activity” value in series [4] is “significant increase”.
For the molecule `CC(=O)N1CCN(c2ccc(OCC3COC(Cn4ccnc4)(c4ccc(Cl)cc4Cl)O3)cc2)CC1` (stereo not drawn) [ketoconazole], the “effect on the pharmacokinetics of a single oral sorafenib dose” value in series [6] (ketoconazole 400 mg/kg/day, sorafenib 10 mg/kg p.o., rats) was “did not affect”.
As for `CNC(=O)c1cc(Oc2ccc(NC(=O)Nc3ccc(Cl)c(C(F)(F)F)c3)cc2)ccn1` [sorafenib, Sorafenib], the “time after administration at which maximal plasma concentrations (Cmax) were observed” value in [7] (Group A2: single sorafenib 10 mg/kg, p.o., rat plasma, approximately) lay in the range of 3 to 8 h. Moreover, the CL in series [7] (setting [10]) is 1.8 ± 0.7 mL/min/kg; in series [7] (Group A3: LDXGT formulation 1 g/kg/day p.o. for 5 consecutive days, then single sorafenib 10 mg/kg p.o., rat plasma, mean ± SD, n = 6), 2.1 ± 0.8 mL/min/kg; in series [7] (setting [11]), 1.8 ± 0.2 mL/min/kg; in series [6] (Group B1 (GFJ3): grapefruit juice 3 mL/day p.o. for 5 consecutive days, rat plasma) it was 2.0 ± 0.4 mL/min/kg; in series [6] (Group B2 (GFJ6): grapefruit juice 6 mL/day p.o. for 5 consecutive days, rat plasma), 2.6 ± 1.1 mL/min/kg; in [6] (Group B4 (KCZ40): ketoconazole 40 mg/kg/day p.o. for 5 consecutive days, rat plasma) it was 2.3 ± 0.8 mL/min/kg. Also, the Vss was determined as 1.564 ± 0.477 L/kg in series [7] (setting [10]) and 1.565 ± 0.231 L/kg in [7] (setting [11]). Further, the “F (oral bioavailability)” value came to 49 ± 5.0% in [7] (Group A4: LDXGT formulation 2 g/kg/day p.o. for 5 consecutive days, then single sorafenib 10 mg/kg p.o., compared to Group A1 (3 mg/kg, i.v.), rat, mean ± SD, n = 6); 45 ± 11% in series [6] (Group B1 (GFJ3): grapefruit juice 3 mL/day p.o. for 5 consecutive days); 39 ± 14% in [6] (Group B2 (GFJ6): grapefruit juice 6 mL/day p.o. for 5 consecutive days); 42 ± 14% in series [6] (Group B4 (KCZ40): ketoconazole 40 mg/kg/day p.o. for 5 consecutive days). Further, in [7] (each of Groups A2–A4 (sorafenib 10 mg/kg p.o. alone or after LDXGT 1 or 2 g/kg/day), rat plasma, approximately), the “time after administration at which maximal plasma concentrations were reached” value lay in the range of 3 to 8 h. The molecule also had a concentration at 8 min in [7] (male, Sprague-Dawley, rat, plasma, intravenous, 3 mg/kg) of 2840 ng/mL. Moreover, the clearance in series [7] (male, Sprague-Dawley, rat, plasma, iv, 3 mg/kg) came to 1.1 ± 0.4 mL/min/kg. Further, the AUC in [7] (setting [12]) is 56000 ng·h/mL; in series [7] (setting [13]), 104000 ng·h/mL; in series [7] (setting [14]), 94200 ng·h/mL; in [7] (setting [15]), 91500 ng·h/mL. For the same molecule, the Cmax is 4600 ± 200 ng/mL in series [7] (setting [12]), 5000 ± 1400 ng/mL in series [7] (setting [13]), 4800 ± 1000 ng/mL in series [7] (setting [14]) and 4800 ± 700 ng/mL in series [7] (setting [15]). Besides, the half-life in series [7] (setting [12]) turned out to be 8.32 ± 4.58 h; in series [7] (setting [13]), 10.5 ± 1.97 h; in series [7] (setting [14]), 10.8 ± 3.2 h; in series [7] (setting [15]), 9.9 ± 2.55 h. Also, in [7] (male, Sprague-Dawley, rat, plasma, iv, 3 mg/kg, read-out: Vss), the Vd is 1.19 ± 0.129 L/kg. Besides, the bioavailability in [7] (male, Sprague-Dawley, rat, plasma, po, 10 mg/kg, Group A2: sorafenib 10 mg/kg, p.o. alone, compared to Group A1 (3 mg/kg, i.v.), rat, mean ± SD, n = 6) amounted to 56 ± 20%; in series [7] (male, Sprague-Dawley, rat, plasma, po, 10 mg/kg), 50 ± 24%; in series [6] (male, Sprague-Dawley, in vivo, po, 10 mg/kg) it was 52 ± 4.3%. In addition, the Tmax in [7] (setting [13]) is 7 h; in series [7] (setting [14]) it was 6.33 h; in series [7] (setting [15]), 5.17 h. Also, in [7] (pilot study, single dose 10, 20 and 40 mg/kg, p.o., rat plasma), the “pharmacokinetic properties across doses (concentration versus time profile)” value is “dose-dependent”. The “liver function (AST and ALT)” value in series [8] (repeated sorafenib 10 mg/kg for 2 weeks alone or combined with LDXGT, Groups D5–D7) was “marked elevation”; in [8] (single sorafenib dose 10 mg/kg p.o. alone or after LDXGT pretreatment, among Groups D2–D4, 0, 3 and 6 h after dosing), “No significant difference”. The “liver histopathology (H&E staining)” value in series [9] (repeated administration groups, Groups D5–D7 (sorafenib 10 mg/kg for 2 weeks, alone or with LDXGT)) is “marked focal inflammation, portal inflammation, focal hemorrhage and congestion, focal lytic necrosis and hepatocyte apoptosis, liver cell degeneration and disrupted intercellular cohesion”; in series [9] (single-dose groups, Groups D1–D4 (sorafenib 3 mg/kg i.v. or 10 mg/kg p.o., alone or after LDXGT)) it was “focal inflammation, portal inflammation, focal hemorrhage and congestion, focal lytic necrosis and hepatocyte apoptosis”. For the same molecule, the “time after administration at which maximal plasma concentrations were achieved” value in series [6] (each of Groups A2, B1–B4 (sorafenib 10 mg/kg p.o. alone or after grapefruit juice or ketoconazole), rat plasma, approximately) lay in the range of 3 to 8 h.
